Entries after “also recorded” stand apart in the source; their conditions may differ.
Key:
Format in all cases: cell-based
HEK293T cells = assay: Cell viability assay (ATP content), HEK293T cells; conditions: up to 20 μM, 24 h
Protocol: FIG. 23—Cell viability assay (ATP content) of […] cells in the presence of compounds. Measurement of ATP content of HEK293T cells upon incubating with BRD7087 and BRD5779 (5-20 μM) for 24 h. Error bars represent ±S.D. from technical replicates (n=3).
FIG. 67. Cell viability assay (ATP content) of HEK293T cells in the presence of compounds. Measurement of ATP content of HEK293T cells upon incubating with BRD7087 and BRD5779 (5-20 μM) for 24 h. Error bars represent ±S.D. from technical replicates (n=3).

S. aureus RN4220 strain [1] = assay: Bacterial resistance study against phage (CRISPR-immunity, OD600 growth curves); conditions: 5-20 μM; for blockage of CRISPR-immunity: sensitization of immune bacterial cells to phage: OD600 over 16 hours, phage MOI 1
Protocol: (§1) Bacterial study. Plasmid pRH248 harboring SpCas9, tracrRNA and a single-spacer array ([…]) (SEQ ID 13) No. targeting phage (DNM474 was constructed via BsaI cloning onto pDB114 as described in Heler et al 6. Plate reader growth curves of bacteria infected with phage were conducted as described previously with minor modifications 7. Overnight cultures were diluted 1:100 into 2 ml of fresh BHI supplemented with appropriate antibiotics and 5 mM CaCl2) and grown to an OD600 of ˜0.2. Immune cells carrying pRH248 were diluted with cells lacking CRISPR-Cas in a 1:10,000 ratio. Following a 15-minute pre-incubation with DMSO or with varying amounts of inhibitors (5-20 μM), the cultures were infected with <DNM474 at an initial MOI of 1. To produce plate reader growth curves, 200 μL of infected cultures, normalized for OD600, were transferred to a 96-well plate in triplicate. OD600 measurements were collected every 10 minutes for 16 hours. Similarly, growth curves to evaluate the toxicity of the compounds at 20 μM (FIG. 32) were conducted on cultures lacking CRISPR in the absence of phage.
as §1, with “NO:38)” for “13) No.”, “DNM474” for “(DNM474”, “al^6.” for “al 6.”, “modifications^7.” for “modifications 7.”, “DNM474” for “<DNM474”, “Similarly, growth curves to evaluate the toxicity of the compounds at 20 μM (FIG. 32) were conducted on cultures lacking CRISPR in the absence of phage.” left out

S. aureus RN4220 strain [2] = assay: Toxicity study of compounds in bacterial culture (no phage); conditions: 20 μM; 16 h; inhibitor alone
Protocol: FIG. 79. Toxicity study of compounds in bacterial culture. Bacterial growth study in the presence of the compound. Bacterial cell S. aureus RN4220 strain was allowed to grow either in the presence of DMSO or 20 μM of compound BRD7087 or BRD5779 over 16 h. The experiment was performed in three technical replicates.
as §1, with “Following a 15-minute pre-incubation with DMSO or with varying amounts of inhibitors (5-20 μM), the cultures were infected with <DNM474 at an initial MOI of 1.” left out, “OD600 measurements were collected every 10 minutes for 16 hours. Similarly, growth curves to evaluate the toxicity of the compounds at 20 μM (FIG. 32) were conducted on cultures lacking CRISPR in the absence of phage.” left out
Bacterial study. […] Plate reader growth curves of bacteria infected with phage were conducted as described previously with minor modifications^7. […] To produce plate reader growth curves, 200 μL of infected cultures, normalized for OD600, were transferred to a 96-well plate in triplicate. […]

dCas9 = assay: dCas9-based transcriptional activation of HBG1 gene in HEK293FT cells (RT-qPCR); conditions: for inhibition of HBG1 transcriptional activation: HEK293FT cells, 48 hours
Protocol: Transcription activation experiments and quantitative RT-PCR analyses. For transcription activation experiments 250,000 cells/well were plated in a 12 well plate. The cells were transiently transfected with a 1:1:1 mass ratio of the dCas9 plasmid, MS2-P65-HSF1 effector plasmid and the sgRNA plasmid targeting the HBG1 gene or an RFP control plasmid. A total of 1.6 μg plasmid DNA was transfected using Lipofectamine 2000 (Life Technologies) according to manufacturer's protocol. Immediately after transfection, the cells were treated with an appropriate dose of the small molecule inhibitors for 48 hours following which the cells were harvested and RNA was extracted using the EZNA Total RNA kit I (Omega) as per manufacturer's instructions. 1 μg total cellular RNA was used to perform reverse transcription using the High-Capacity cDNA Reverse Transcription Kit (Applied Biosystems) or the qScript cDNA Synthesis Kit (QuantaBio). qPCR reactions were performed to quantify RNA expression using the TaqMan probes (Life Technologies, HBG1/HBG2: Hs00361131_g1 and ACTB: Hs01060665_g1) and TaqMan Fast Advanced Master Mix (Life Technologies) in 5 μL multiplexed reactions and 384-well format using the LightCycler 480 Instrument II (Roche). For each sample, six technical replicates were performed. Data were analyzed using the LightCycler 480 software (Roche) by the ΔΔCt method: Ct values for the gene of interest (HBG1) were normalized to Ct values for the housekeeping gene (ACTB) and fold-changes in the expression level of the gene of interest were normalized to RFP-transfected control. The data are reported as mean±S.E.M. for technical replicates.
For transcription activation experiments 250,000 cells/well were plated in a 12 well plate. […] Data were analyzed using the LightCycler 480 software (Roche) by the ΔΔCt method: Ct values for the gene of interest (HBG1) were normalized to Ct values for the housekeeping gene (ACTB) and fold-changes in the expression level of the gene of interest were normalized to RFP-transfected control. […]

Structure (SMILES) | cytotoxicity: cellular ATP-levels (HEK293T cells) | blockage of CRISPR-immunity: sensitization of immune bacterial cells to phage (S. aureus RN4220 strain [1]) | toxicity to bacteria in the absence of phage (S. aureus RN4220 strain [2]) | inhibition of HBG1 transcriptional activation (dCas9) | activity in phage assay compared with BRD5779 (S. aureus RN4220 strain [1]) | inhibition of transcriptional activation (dCas9; 10 μM, HBG1 gene) [%]
COc1ccc(-c2ccc3c(c2)[C@H]2[C@H](CCN2Cc2ccncc2)[C@@H](CO)N3)cc1 [BRD5779, ((3aR,4S,9bR)-8-(4-Methoxyphenyl)-1-(pyridin-4-ylmethyl)-2,3,3a,4,5,9b-hexahydro-1H-pyrrolo[3,2-c]quinolin-4-yl)methanol] | did not significantly alter the cellular ATP-levels | able to sensitize the immune bacterial cells against target phage in a dose-dependent manner; also recorded: dose-dependent blockage of CRISPR-Cas9 based immunity | non-toxic in the absence of phage | dose-dependent inhibition | – | –
OC[C@H]1Nc2ccc(-c3cccc(F)c3)cc2[C@H]2[C@@H]1CCN2Cc1ccncc1 [BRD7087, ((3aR,4S,9bR)-8-(3-Fluorophenyl)-1-(pyridin-4-ylmethyl)-2,3,3a,4,5,9b-hexahydro-1H-pyrrolo[3,2-c]quinolin-4-yl)methanol] | did not significantly alter the cellular ATP-levels | able to sensitize the immune bacterial cells against target phage in a dose-dependent manner; also recorded: dose-dependent blockage of CRISPR-Cas9 based immunity | non-toxic in the absence of phage | dose-dependent inhibition | higher activity | > 60

Source: patent US11760984B2, “CRISPR protein inhibitors” (THE BROAD INSTITUTE, INC., priority 2017, dated 2023)
